Test results published in publication PMC6445163, “Design, synthesis, and evaluation of novel 2-phenylpropionic acid derivatives as dual COX inhibitory-antibacterial agents” (Journal of Enzyme Inhibition and Medicinal Chemistry, 2017).
≈ marks a conversion by molar mass, not a printed value.

Key:
COX-2 = target: T1, COX-2 (Homo sapiens, UniProt P35354); test: fluorometric COX-2 inhibitor screening kit assay; format: biochemical; details: 25 °C
T1 construct: purchased Biovision K547-100
T1 sequence (P35354 18-604): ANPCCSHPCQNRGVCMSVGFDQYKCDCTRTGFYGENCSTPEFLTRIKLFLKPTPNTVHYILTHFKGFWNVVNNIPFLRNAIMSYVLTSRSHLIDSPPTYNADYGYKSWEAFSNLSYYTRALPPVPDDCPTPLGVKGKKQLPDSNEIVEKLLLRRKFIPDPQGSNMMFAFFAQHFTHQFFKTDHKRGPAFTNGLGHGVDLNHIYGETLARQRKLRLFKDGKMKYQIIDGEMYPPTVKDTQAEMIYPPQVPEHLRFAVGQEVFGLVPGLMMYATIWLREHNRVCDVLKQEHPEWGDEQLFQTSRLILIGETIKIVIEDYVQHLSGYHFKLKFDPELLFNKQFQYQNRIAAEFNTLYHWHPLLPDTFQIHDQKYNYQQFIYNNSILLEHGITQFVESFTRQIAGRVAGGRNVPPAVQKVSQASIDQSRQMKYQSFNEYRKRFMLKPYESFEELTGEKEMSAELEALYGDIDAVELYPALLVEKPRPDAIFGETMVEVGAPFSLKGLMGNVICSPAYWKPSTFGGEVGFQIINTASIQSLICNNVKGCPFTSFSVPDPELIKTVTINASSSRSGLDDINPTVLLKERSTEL
Method: Inhibitory potency of the compounds against COX-1 and COX-2 enzymes was determined using fluorometric COX-1 and COX-2 inhibitor screening kits (Biovision, Zurich, Switzerland). Experimental protocol was followed as described in the guides of the supplier[47]^,[48]. All of the pipettings in the assay were performed by Biotek Precision robotic system (BioTek Instruments, Inc., Winooski, VT). […] Appropriate two points (T1 and T2) in the linear range of the plot were chosen, and the corresponding fluorescence values (RFU1 and RFU2) were obtained. The slope for all samples, including enzyme control (EC), by dividing the net ΔRFU (RFU2–RFU1) values by the time ΔT (T2–T1) were calculated by using following equation: % Relative inhibition=(Slope of EC-Slope of S/Slope of EC)×100
This initial in vitro assay was done with two concentrations (10^−3 and 10^−4 M) for all compounds. […] The IC50 value was calculated from the plots of enzyme activity against concentrations by applying regression analyses on GraphPad Prism Version 5 (GraphPad Software, La Jolla, CA).
Selectivity indexes (SI) were expressed as IC50 (COX-1)/IC50 (COX-2). Selectivity toward COX-2 decreases as the corresponding SI decreases while selectivity toward COX-1 isoform increases as the corresponding SI decreases.

[1] = system: Listeria monocytogenes (ATCC 1911); test: broth microdilution MIC (CLSI M07-A9), resazurin; format: cell-based; details: ATCC1911, 24 h
Method: (§1) Microbiological studies were performed according to following guides: CLSI reference […]-A9 broth microdilution method[49] for bacterial strains and EUCAST definitive (EDef 7.1) method[50] for Candida species. Synthesized compounds were tested for their in vitro growth inhibitory activity against Staphylococcus aureus (ATCC 25923), Enterococcus faecalis (ATCC 29212), Listeria monocytogenes (ATCC 1911), Klebsiella pneumoniae (NCTC 9633), Escherichia coli (ATCC 35218), E. coli (ATCC 25922) Candida albicans (ATCC 24433) Candida krusei (ATCC 6258) and Candida parapsilosis (ATCC 22019). Chloramphenicol and ketoconazole were used as control drugs. The cultures were obtained from the Mueller-Hinton broth (Difco) for the bacterial strains after overnight incubation at 37 °C. The yeasts were maintained in Roswell Park Memorial Institute (RPMI) after overnight incubation at 37 °C. […] Testing was carried out in Mueller-Hinton broth and RPMI at pH =7, and the two-fold serial dilutions technique was applied. The last well on the microplates containing only inoculated broth was kept as controls and the last well with no growth of microorganism was recorded to represent the minimum inhibitory concentration (MIC) expressed in μg/mL. For both the antibacterial and antifungal assays, the compounds were dissolved in DMSO. […] The completed plates were incubated for 24 h. At the end of the incubation, resazurin (20 μg/mL) was added into each well and plates were incubated for 2 h. MIC values were determined using a microplate reader at […]. Synthesized compounds (6a-6m) were evaluated for antimicrobial activity against various microorganisms such as Staphylococcus aureus (ATCC 25923), Enterococcus faecalis (ATCC 29212), Listeria monocytogenes (ATCC 1911), Klebsiella pneumoniae (NCTC 9633), Escherichia coli (ATCC 35218), E. coli (ATCC 25922)Candida albicans (ATCC 24433) Candida krusei (ATCC 6258) and Candida parapsilosis (ATCC 22019). […] Chloramphenicol and ketoconazole were used as standard drugs in the activity test. […] Besides, the compounds 6d, 6h, 6l and 6m indicated stronger antibacterial activity than the other compounds in the series.

[2] = system: Escherichia coli (ATCC 25922); test: broth microdilution MIC (CLSI M07-A9), resazurin; format: cell-based; details: ATCC25922, 24 h, read-out: MIC Ec-2
Method: as §1

[3] = system: Klebsiella pneumoniae (NCTC 9633); test: broth microdilution MIC (CLSI M07-A9), resazurin; format: cell-based; details: 24 h
Method: as §1

[4] = system: Staphylococcus aureus (ATCC 25923); test: broth microdilution MIC (CLSI M07-A9), resazurin; format: cell-based; details: ATCC25923, 24 h
Method: as §1

[5] = system: Escherichia coli (ATCC 35218); test: broth microdilution MIC (CLSI M07-A9), resazurin; format: cell-based; details: ATCC35218, 24 h, read-out: MIC Ec-1
Method: as §1

[6] = system: Enterococcus faecalis (ATCC 29212); test: broth microdilution MIC (CLSI M07-A9), resazurin; format: cell-based; details: ATCC29212, 24 h
Method: as §1

SMILES | IC50 (COX-2) [µM] | MIC [1] [µg/mL] | MIC [2] [µg/mL] | MIC Kp [3] [µg/mL] | MIC [4] [µg/mL] | MIC [5] [µg/mL] | MIC [6] [µg/mL]
COc1ccc2sc(SCc3ccc(C(C)C(=O)O)cc3)nc2c1 (centres unmarked) [Compound 6h, 2-(4-(((5-Methoxybenzo[d]thiazol-2-yl)thio)methyl)phenyl)propanoic acid] | 2.96 | 6.25 (≈ 17.4 µM) | 12.5 (≈ 34.8 µM) | 6.25 (≈ 17.4 µM) | 12.5 (≈ 34.8 µM) | 6.25 (≈ 17.4 µM) | 12.5 (≈ 34.8 µM)
COc1ccc2[nH]c(SCc3ccc(C(C)C(=O)O)cc3)nc2c1 (centres unmarked) [Compound 6l, 2-(4-(((5-Methoxy-1H-benzo[d]imidazol-2-yl)thio)methyl)phenyl)propanoic acid] | 2.34 | 6.25 (≈ 18.3 µM) | 12.5 (≈ 36.5 µM) | 6.25 (≈ 18.3 µM) | 12.5 (≈ 36.5 µM) | 6.25 (≈ 18.3 µM) | 12.5 (≈ 36.5 µM)
